From the supplement of paper PMC10307832

How the values were obtained:
Assay in all cases: relative viability (nuclei count vs DMSO), 5 days (fraction); higher = more cells survive
VE-821 = compound: CS(=O)(=O)c1ccc(-c2cnc(N)c(C(=O)Nc3ccccc3)n2)cc1 [VE-821]
How it was run: (§1)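 Lung cancer cell lines were seeded into 1536-well plates, kept overnight at 37 °C and pinned with five library-drug doses (not always all listed) spaced by √10. After 5 days, nuclei were Hoechst-stained, imaged at 4× and counted with MetaXpress. Viability is treated-well nuclei over vehicle-well nuclei, taken as a median across plates. Plates needed control CV below 25% and at least one doubling.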

Vismodegib = compound: CS(=O)(=O)c1ccc(C(=O)Nc2ccc(Cl)c(-c3ccccn3)c2)c(Cl)c1 [Vismodegib]
How it was run: as §1

Ruxolitinib = compound: N#CC[C@H](C1CCCC1)n1cc(-c2ncnc3[nH]ccc23)cn1 [Ruxolitinib]
How it was run: as §1

Ruxolitinib + Foretinib = compound: N#CC[C@H](C1CCCC1)n1cc(-c2ncnc3[nH]ccc23)cn1 [Ruxolitinib] + COc1cc2c(Oc3ccc(NC(=O)C4(C(=O)Nc5ccc(F)cc5)CC4)cc3F)ccnc2cc1OCCCN1CCOCC1 [Foretinib] (partner 0.25 µM)
How it was run: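 Lung cancer cell lines were pin-tool dosed in 1536-well plates on the day after seeding, with either a lone drug or a fixed anchor-drug dose plus five library-drug doses (not always all listed) in √10 steps. Nuclei were counted on 4× images after 5 days. Relative viability is the ratio of treated-well to vehicle-well nuclei counts, with each value a median of duplicate plates.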

| Cell Line | relative viability (VE-821; 0.08 µM) | relative viability (VE-821; 0.253 µM) | relative viability (VE-821; 0.8 µM) | relative viability (VE-821; 2.53 µM) | relative viability (VE-821; 8 µM) | relative viability (Vismodegib; 0.08 µM) | relative viability (Vismodegib; 0.253 µM) | relative viability (Vismodegib; 0.8 µM) | relative viability (Vismodegib; 2.53 µM) | relative viability (Vismodegib; 8 µM) | relative viability (Ruxolitinib; 0.08 µM) | relative viability (Ruxolitinib; 0.253 µM) | relative viability (Ruxolitinib; 0.8 µM) | relative viability (Ruxolitinib; 2.53 µM) | relative viability (Ruxolitinib; 8 µM) | relative viability (Ruxolitinib + Foretinib; first compound 0.08 µM) | relative viability (Ruxolitinib + Foretinib; first compound 0.253 µM) | relative viability (Ruxolitinib + Foretinib; first compound 0.8 µM) | relative viability (Ruxolitinib + Foretinib; first compound 2.53 µM) | relative viability (Ruxolitinib + Foretinib; first compound 8 µM) |
| --- | --- | --- | --- | --- | --- | --- | --- | --- | --- | --- | --- | --- | --- | --- | --- | --- | --- | --- | --- | --- |
| NCI-H23 | 1.03 | 0.888 | 0.983 | 0.818 | 0.319 | 1.05 | 0.931 | 0.886 | 0.926 | 0.773 | 1.04 | 1.01 | 0.995 | 0.84 | 0.772 | 1.07 | 0.969 | 1 | 0.813 | 0.709 |
| SK-LU-1 | 1.08 | 1.06 | 0.942 | 0.841 | 0.569 | 1 | 0.997 | 1.07 | 0.943 | 1.04 | 1.01 | 1.08 | 1.12 | 0.966 | 0.907 | 0.813 | 0.806 | 0.876 | 0.75 | 0.676 |
| NCI-H1395 | 0.963 | 0.89 | 0.792 | 0.888 | 0.665 | 0.834 | 0.878 | 0.853 | 0.829 | 1 | 0.816 | 0.767 | 1.02 | 0.913 | 0.771 | 1.07 | 0.919 | 1.03 | 0.866 | 0.968 |
| NCI-H2170 | 0.972 | 0.932 | 1.01 | 0.966 | 0.642 | 1.03 | 0.959 | 1.01 | 0.955 | 0.993 | 1.05 | 0.975 | 1 | 0.924 | 0.841 | 0.992 | 0.609 | 0.602 | 0.951 | 0.943 |
| LOU-NH91 | 1.03 | 0.946 | 0.927 | 1.03 | 0.865 | 0.918 | 0.963 | 0.946 | 0.908 | 0.958 | 0.847 | 0.957 | 1.03 | 0.933 | 0.99 |  | 0.968 | 1.02 | 0.877 | 0.876 |
| NCI-H647 | 1.11 | 0.9 | 0.798 | 0.987 | 0.506 | 0.913 | 0.863 | 0.978 | 0.964 | 1.14 | 0.81 | 0.962 | 1.04 | 0.897 | 0.836 | 1.08 | 1.27 | 1.31 | 1.19 | 1.08 |
| A549 | 1.11 | 0.939 | 0.927 | 0.954 | 0.738 | 0.964 | 0.91 | 0.936 | 0.915 | 0.971 | 0.934 | 0.965 | 1.11 | 0.941 | 0.736 | 0.926 | 0.926 | 1.08 | 0.834 | 0.632 |
| LXF-289 | 1.06 | 1.1 | 1.09 | 1.06 | 1.14 | 1.02 | 0.989 | 1.03 | 0.988 | 0.902 | 0.965 | 0.996 | 0.938 | 0.944 | 0.919 | 0.902 | 0.957 | 0.97 | 0.91 | 0.871 |
| PC-3 [JPC-3] | 1.03 | 1.07 | 1.07 | 1.06 | 0.971 | 0.977 | 0.999 | 0.986 | 1.02 | 0.986 | 0.818 | 0.941 | 1.02 | 1.03 | 0.908 | 0.859 | 1.01 | 0.975 | 0.957 | 0.871 |
| NCI-H2009 | 1.03 | 0.961 | 1 | 1.06 | 0.863 | 0.982 | 0.977 | 0.976 | 0.964 | 0.992 | 1.03 | 1.01 | 1.04 | 0.842 | 0.657 | 1.21 | 1.27 | 1.23 | 1.15 | 0.876 |
| LK-2 | 1.26 | 0.911 | 0.993 | 1.02 | 0.881 | 1 | 0.842 | 0.861 | 1.02 | 0.899 | 0.928 | 0.949 | 1.13 | 1.02 | 1.09 | 1.15 | 1.45 | 1.46 | 1.29 | 1.34 |
| NCI-H1993 | 0.92 | 0.844 | 0.916 | 0.929 | 0.692 | 0.807 | 0.916 | 0.859 | 0.875 | 0.87 | 0.872 | 0.774 | 1.04 | 1 | 0.771 | 0.752 | 0.698 | 0.821 | 0.857 | 0.817 |
| HCC-15 | 1.09 | 0.966 | 1.08 | 1.21 | 0.996 | 1.03 | 0.973 | 0.977 | 1.04 | 0.959 | 1.01 | 0.984 | 1.07 | 0.943 | 0.811 | 1.04 | 0.995 | 1.1 | 0.926 | 0.771 |
| NCI-H322M | 0.96 | 0.912 | 0.96 | 0.864 | 0.371 | 0.912 | 0.896 | 0.932 | 0.868 | 0.88 | 0.934 | 0.962 | 1.04 | 1.27 | 1.36 | 0.964 | 0.99 | 1.18 | 1.22 | 1.43 |
